# Measured values reported in US9232796B2, “Herbicidal compositions comprising 4-amino-3-chloro-5-fluoro-6-(4-chloro-2-fluoro-3-methoxyphenyl) pyridine-2-carboxylic acid or a derivative thereof and acetyl-CoA carboxylase (ACCase) inhibitors” (DOW AGROSCIENCES LLC, priority 2012, dated 2016).
# How the values were obtained:
# KCHSC = assay: Example IV postemergence foliar-applied, greenhouse, cereal crops weeds; assay type: in vivo, Kochia scoparia (L.) Schrad.
# Protocol: (§1) Seeds of the desired test plant species were planted in Sun Gro MetroMix® 306 planting mixture, which typically has a pH of 6.0 to 6.8 and an organic matter content of about 30 percent, in plastic pots with a surface area of 103.2 square centimeters (cm^2). […] The plants were grown for 7-36 days in a greenhouse with an approximate 14 hour photoperiod which was maintained at about 18° C. during the day and about 17° C. during the night. Nutrients and water were added on a regular basis and supplemental lighting was provided with overhead metal halide 1000-Watt lamps as necessary. The plants were employed for testing when they reached the second or third true leaf stage.
# (§2) Treatments consisted of the benzyl ester of 4-amino-3-chloro-5-fluoro-6-(4-chloro-2-fluoro-3-methoxy-phenyl)pyridine-2-carboxylic acid (Compound A), formulated as an SC, a second cereal herbicide alone and then both in combination.
# (§3) Other herbicidal components were applied on an active ingredient basis and included acetyl-CoA carboxylase (ACCase)-inhibiting herbicides clodinafop-propargyl, fenoxaprop-P-ethyl, pinoxaden and tralkoxydim.
# (§4) Measured aliquots of benzyl ester of 4-amino-3-chloro-5-fluoro-6-(4-chloro-2-fluoro-3-methoxy-phenyl)pyridine-2-carboxylic acid (Compound A) were placed in 25 milliliter (mL) glass vials and diluted in a volume of 1.25% (v/v) Agri-Dex® crop oil concentrate to obtain stock solutions. Compound requirements are based upon a 12 mL application volume at a rate of 187 liters per hectare (L/ha). […] Formulated compounds were applied to the plant material with an overhead Mandel track sprayer equipped with an 8002E nozzle calibrated to deliver 187 L/ha over an application area of 0.503 square meters (m^2) at a spray height of 18 inches (46 cm) above average plant canopy. Control plants were sprayed in the same manner with the solvent blank.
# (§5) The treated plants and control plants were placed in a greenhouse as described above and watered by sub-irrigation to prevent wash-off of the test compounds. After 20-22 days, the condition of the test plants as compared with that of the control plants was determined visually and scored on a scale of 0 to 100 percent where 0 corresponds to no injury and 100 corresponds to complete kill.
# (§6) Colby's equation was used to determine the herbicidal effects expected from the mixtures (Colby, S. R. 1967. Calculation of the synergistic and antagonistic response of herbicide combinations. Weeds 15:20-22.).
# (§7) The following equation was used to calculate the expected activity of mixtures containing two active ingredients, A and B: Expected=A+B−(A×B/100)
# ALOMY = assay: as above; assay type: in vivo, Alopecurus myosuroides Huds.
# Protocol: (§8) Seeds of the desired test plant species were planted in Sun Gro MetroMix® 306 planting mixture, which typically has a pH of 6.0 to 6.8 and an organic matter content of about 30 percent, in plastic pots with a surface area of 103.2 square centimeters (cm^2). When required to ensure good germination and healthy plants, a fungicide treatment and/or other chemical or physical treatment was applied. The plants were grown for 7-36 days in a greenhouse with an approximate 14 hour photoperiod which was maintained at about 18° C. during the day and about 17° C. during the night. Nutrients and water were added on a regular basis and supplemental lighting was provided with overhead metal halide 1000-Watt lamps as necessary. The plants were employed for testing when they reached the second or third true leaf stage.
# as §2, §3
# (§9) Measured aliquots of benzyl ester of 4-amino-3-chloro-5-fluoro-6-(4-chloro-2-fluoro-3-methoxy-phenyl)pyridine-2-carboxylic acid (Compound A) were placed in 25 milliliter (mL) glass vials and diluted in a volume of 1.25% (v/v) Agri-Dex® crop oil concentrate to obtain stock solutions. Compound requirements are based upon a 12 mL application volume at a rate of 187 liters per hectare (L/ha). Spray solutions of the second cereal herbicide and experimental compound mixtures were prepared by adding the stock solutions to the appropriate amount of dilution solution to form 12 mL spray solution with active ingredients in two- and three-way combinations. Formulated compounds were applied to the plant material with an overhead Mandel track sprayer equipped with an 8002E nozzle calibrated to deliver 187 L/ha over an application area of 0.503 square meters (m^2) at a spray height of 18 inches (46 cm) above average plant canopy. Control plants were sprayed in the same manner with the solvent blank.
# as §5, with “kill. […]” for “kill.”
# APESV = assay: as above; assay type: in vivo, Apera spica-venti (L.) Beauv.
# Protocol: as §1, §2, §3, §4, §5, §6, §7
# PHAMI = assay: as above; assay type: in vivo, Phalaris minor Retz.
# Protocol: as §1, §2, §3, §4, §5, §6, §7
# LOLMU = assay: as above; assay type: in vivo, Lolium multiflorum Lam.
# Protocol: as §8, §2, §3, §9, §5, §6, §7
# CYPIR = assay: Example I postemergence foliar-applied, greenhouse, direct seeded rice weeds; assay type: in vivo, Cyperus iria L.
# Source text: Seeds or nutlets of the desired test plant species were planted in a soil matrix prepared by mixing a loam or sandy loam soil (e.g., 28.6 percent silt, 18.8 percent clay, and 52.6 percent sand, with a pH of about 5.8 and an organic matter content of about 1.8 percent) and calcareous grit in an 80 to 20 ratio. The soil matrix was contained in plastic pots with a volume of 1 quart and a surface area of 83.6 square centimeters (cm^2). When required to ensure good germination and healthy plants, a fungicide treatment and/or other chemical or physical treatment was applied. The plants were grown for 8-22 days in a greenhouse with an approximate 14 hr. photoperiod which was maintained at about 29° C. during the day and 26° C. during the night. Nutrients (Peters Excel® 15-5-15 5-Ca 2-Mg and iron chelate) were applied in the irrigation solution as needed and water was added on a regular basis. Supplemental lighting was provided with overhead metal halide 1000-Watt lamps as necessary. The plants were employed for testing when they reached the first through fourth true leaf stage.
# Treatments consisted of the acid or esters of 4-amino-3-chloro-5-fluoro-6-(4-chloro-2-fluoro-3-methoxy-phenyl)pyridine-2-carboxylic acid (Compound A), each formulated as an SC (suspension concentrate), and various herbicidal components alone and in combination.
# Other herbicidal components were applied on an acid equivalent (ae) or active ingredient (ai) basis and included acetyl coA carboxylase (ACCase)-inhibiting herbicides (cyclohexanedione and aryloxyphenoxypropionate chemical classes) cyhalofop-butyl formulated as Clincher® SF (285 gr ai/L EC), diclofop-methyl formulated as Hoelon® 3EC, fenoxaprop-p-ethyl+isoxadifen-ethyl formulated as RiceStar® HT (0.58 lb./gal EC), fenoxaprop-p-ethyl+mefenpyr diethyl formulated as Puma® IEC, metamifop formulated as Metamifop EC, haloxyfop-methyl formulated as Gallant Super®, fluazifop-p-butyl formulated as Fusilade® DX, quizalofop-p-ethyl formulated as Assure® II, profoxydim formulated as Aura® 20EC, clethodim applied as Intensity®, sethoxydim formulated as Poast®, and tralkoxydim formulated as Achieve®.
# Treatment requirements were calculated based upon the rates being tested, the concentration of active ingredient or acid equivalent in the formulation, and a 12 mL application volume at a rate of 187 L/ha.
# For treatments comprised of formulated compounds, measured amounts of compounds were placed individually in 25 mL glass vials and diluted in a volume of 1.25% (v/v) Agri-Dex® crop oil concentrated to obtain 12× stock solutions. […] Application solutions were prepared by adding an appropriate amount of each stock solution (e.g., 1 mL) and diluted to the appropriate final concentrations with the addition of 10 mL of an aqueous mixture of 1.25% (v/v) crop oil concentrate so that the final spray solutions contained 1.25+/−0.05% (v/v) crop oil concentrate.
# All stock solutions and applications solutions were visually inspected for compound compatibility prior to application. Spray solutions were applied to the plant material with an overhead Mandel track sprayer equipped with a 8002E nozzles calibrated to deliver 187 L/ha over an application area of 0.503 m^2 at a spray height of 18 to 20 inches (46 to 50 cm) above average plant canopy height. Control plants were sprayed in the same manner with the solvent blank.
# as §5, with “After approximately 3 weeks,” for “After 20-22 days,”, “the untreated” for “the control”, “injury or growth inhibition” for “injury”, “kill. […]” for “kill.”
# AVEFA = assay: Example IV postemergence foliar-applied, greenhouse, cereal crops weeds; assay type: in vivo, Avena fatua L.
# Protocol: as §8, §2, §3, §9
# as §5, with “kill. […]” for “kill.”
smiles,measurement,setting,value
"C#CCOC(=O)[C@@H](C)Oc1ccc(Oc2ncc(Cl)cc2F)cc1 [Clodinafop-propargyl, 2-propynyl(2R)-2-[4-[(5-chloro-3-fluoro-2-pyridinyl)oxy]phenoxy]propanoate]",Visual Weed Control (%) - 21 DAA KCHSC Obs,KCHSC; Clodinafop-propargyl 15 gai/ha,0%
same,Visual Weed Control (%) - 21 DAA KCHSC Obs,KCHSC; Clodinafop-propargyl 30 gai/ha,10%
same,Visual Weed Control (%) - 21 DAA ALOMY Obs,ALOMY; Clodinafop-propargyl 15 gai/ha,80%
same,Visual Weed Control (%) - 21 DAA ALOMY Obs,ALOMY; Clodinafop-propargyl 30 gai/ha,82%
same,Visual Weed Control (%) - 21 DAA APESV Obs,APESV; Clodinafop-propargyl 15 gai/ha,15%
same,Visual Weed Control (%) - 21 DAA APESV Obs,APESV; Clodinafop-propargyl 30 gai/ha,68%
same,Visual Weed Control (%) - 21 DAA PHAMI Obs,PHAMI; Clodinafop-propargyl 15 gai/ha,48%
same,Visual Weed Control (%) - 21 DAA PHAMI Obs,PHAMI; Clodinafop-propargyl 30 gai/ha,55%
same,Visual Weed Control (%) - 21 DAA LOLMU Obs,LOLMU; Clodinafop-propargyl 15 gai/ha,60%
same,Visual Weed Control (%) - 21 DAA LOLMU Obs,LOLMU; Clodinafop-propargyl 30 gai/ha,48%
"CCO/N=C(/CC)C1=C(O)CC(c2c(C)cc(C)cc2C)CC1=O (stereo not drawn) [Tralkoxydim, 2-[1-(ethoxyimino)propyl]-3-hydroxy-5-(2,4,6-trimethylphenyl)-2-cyclohexen-1-one]",Visual Weed Control (%) - 21 DAA KCHSC Obs,KCHSC; Tralkoxydim 50 gai/ha,10%
same,Visual Weed Control (%) - 21 DAA KCHSC Obs,KCHSC; Tralkoxydim 100 gai/ha,0%
same,Visual Weed Control (%) - 22 DAA CYPIR Obs,CYPIR; 100 gai/ha,0%
same,Visual Weed Control (%) - 22 DAA CYPIR Obs,CYPIR; 200 gai/ha,0%
same,Visual Weed Control (%) - 21 DAA LOLMU Obs,LOLMU; Tralkoxydim 50 gai/ha,86%
same,Visual Weed Control (%) - 21 DAA LOLMU Obs,LOLMU; Tralkoxydim 100 gai/ha,96%
same,Visual Weed Control (%) - 21 DAA AVEFA Obs,AVEFA; Tralkoxydim 50 gai/ha,78%
same,Visual Weed Control (%) - 21 DAA AVEFA Obs,AVEFA; Tralkoxydim 100 gai/ha,99%
